Test results: patent publication US9872883B2, “Methods of producing anamorelin hydrochloride having controlled chloride content” (HELSINN HEALTHCARE SA, priority 2012, dated 2018)
Converted amounts (≈) assume the structure as drawn. Where a name gives a salt, the structure may show the parent alone. Blank lines part the entries; values can stand above or below the molecule they belong to.

What was measured:
Type in all cases: physicochemical
[1] = Long-term stability of batches having differing chloride contents, % increase in total impurities
Procedure: The long-term stability of three separate batches of anamorelin monohydrochloride (or composition comprising anamorelin monohydrochloride) having differing chloride contents were evaluated for stability at 25° C./60% relative humidity for one, two and three years, and 40° C./75% relative humidity for one, three and six months. The results are presented below in Table 3C. % Increase in Table 3C was calculated by the following formula. % Increase=(M−I)/I×100
I: initial total impurity (%)
M: measured total impurity (%) at specific time (e.g., 3 months, 6 month and so forth)

[2] = Stability testing for anamorelin dihydrochloride relative to the monohydrochloride and free base at 40° C./75% relative humidity
Procedure: Stability testing for anamorelin dihydrochloride relative to the monohydrochloride and anamorelin free base at 40° C./75% relative humidity is reported below in Table 3D. For the anamorelin dihydrochloride preparation, anamorelin free base was dissolved in ethyl acetate and a molar excess of hydrochloric acid in ethyl acetate was added into the mixture to precipitate anamorelin dihydrochloride. The resulting anamorelin dihydrochloride was filtered and dried (chloride content approximately 12.2%). HPLC Area % in Table 3D refers to the amount of converted value of anamorelin free base in samples.

[3] = Solubility test in distilled water (HPLC); settings: distilled water (initial pH 7)
Procedure: A solution of standard curve was prepared to 356 μmol/L by diluting standard substance (anamorelin free base (quantitative value: 93.90%), 86.6 mmol/L, isopropyl acetate solution) with acetonitrile. In addition, a sample solution was prepared according to the process that test compound (about 100 mg) added into distilled water (10.00 g), the solution was mixed for 10 minutes at 50° C. and then was placed overnight, obtained suspension was filtered by syringe with filter (0.2 μm) and the filtrate (48.93 mg) was diluted with acetonitrile (10 mL). A solution of standard curve and a sample solution (each 5 μL) were determined by injecting into HPLC (GULLIVER1500 HPLC system, JASCO Corporation).

[4] = Stability testing of spray dried amorphous anamorelin monohydrochloride (Batch A), purity and impurities by HPLC; design: Impurity 1 / Impurity 2 / Impurity 3 / Impurity 4 / Impurity 5 / Impurity 6 / Impurity 7: unit not given here
Procedure: The purity of the anamorelin monohydrochloride (or composition comprising anamorelin monohydrochloride) was measured using high performance liquid chromatograph (HPLC) (Hewlett-Packard HP 1100 HPLC System, Agilent Technologies Inc.). The concentrated aqueous solution of anamorelin monohydrochloride A of example 1 was concentrated by spray drying using Niro QSD-3.6 (trade mark, GEA process engineering Inc.) to afford anamorelin monohydrochloride referred to as Batch A in Tables 2A and 2B) in an amorphous state. RRT refers to the relative retention time of the impurity versus anamorelin. In addition, the purity was converted into the amount of anamorelin free base within a sample without any other organic solvent since anamorelin monohydrochloride (or composition comprising anamorelin monohydrochloride) was dissolved in the solvent to be measured by HPLC condition.

HPLC Area % ([2]; 1M): 99.9%
HPLC Area % ([2]; 3M): 99.7%
HPLC Area % ([2]; I.T.): 99.7%
solubility [3]: 0.04 mg/mL (≈ 73.2 µM)
Structure (SMILES): CN(C)N(C)C(=O)[C@@]1(Cc2ccccc2)CCCN(C(=O)[C@@H](Cc2c[nH]c3ccccc23)NC(=O)C(C)(C)N)C1 [Anamorelin Free Base, (3R)1-(2-methylalanyl-D-tryptophyl)-3-(phenylmethyl)-3-piperidinecarboxylic acid 1,2,2trimethylhydrazide]

HPLC Area % ([2]; 1M, listed as Anamorelin Mono-HCl): 99.3%
HPLC Area % ([2]; 3M, listed as Anamorelin Mono-HCl): 99.2%
HPLC Area % ([2]; I.T., listed as Anamorelin Mono-HCl): 99.9%
solubility [3]: >333 mg/mL
long-term stability (in words) ([1]; three years, 25° C./60% RH): nearly unchanged
stability (in words) ([4]; six months under each set of conditions): nearly unchanged
Structure (SMILES): CN(C)N(C)C(=O)[C@@]1(Cc2ccccc2)CCCN(C(=O)[C@@H](Cc2c[nH]c3ccccc23)NC(=O)C(C)(C)N)C1 [anamorelin monohydrochloride]

Impurity 1 ([4]; 25° C./60% RH, 1 month): <0.05
Impurity 2 ([4]; 25° C./60% RH, 1 month): <0.05
Impurity 3 ([4]; 25° C./60% RH, 1 month): <0.05
Impurity 4 ([4]; 25° C./60% RH, 1 month): <0.05
Impurity 5 ([4]; 25° C./60% RH, 1 month): <0.05
Impurity 6 ([4]; 25° C./60% RH, 1 month): <0.05
Impurity 7 ([4]; 25° C./60% RH, 1 month): <0.05
anamorelin (HPLC purity) ([4]; 25° C./60% RH, 1 month): 100.0%
Impurity 1 ([4]; 25° C./60% RH, 3 months): <0.05
Impurity 2 ([4]; 25° C./60% RH, 3 months): <0.05
Impurity 3 ([4]; 25° C./60% RH, 3 months): <0.05
Impurity 4 ([4]; 25° C./60% RH, 3 months): <0.05
Impurity 5 ([4]; 25° C./60% RH, 3 months): <0.05
Impurity 6 ([4]; 25° C./60% RH, 3 months): <0.05
Impurity 7 ([4]; 25° C./60% RH, 3 months): <0.05
anamorelin (HPLC purity) ([4]; 25° C./60% RH, 3 months): 100.0%
Impurity 1 ([4]; 25° C./60% RH, 6 months): <0.05
Impurity 2 ([4]; 25° C./60% RH, 6 months): <0.05
Impurity 3 ([4]; 25° C./60% RH, 6 months): <0.05
Impurity 4 ([4]; 25° C./60% RH, 6 months): <0.05
Impurity 5 ([4]; 25° C./60% RH, 6 months): <0.05
Impurity 6 ([4]; 25° C./60% RH, 6 months): <0.05
Impurity 7 ([4]; 25° C./60% RH, 6 months): <0.05
anamorelin (HPLC purity) ([4]; 25° C./60% RH, 6 months): 100.0%
Impurity 1 ([4]; 40° C./75% RH, 1 month): <0.05
Impurity 2 ([4]; 40° C./75% RH, 1 month): <0.05
Impurity 3 ([4]; 40° C./75% RH, 1 month): <0.05
Impurity 4 ([4]; 40° C./75% RH, 1 month): <0.05
Impurity 5 ([4]; 40° C./75% RH, 1 month): <0.05
Impurity 6 ([4]; 40° C./75% RH, 1 month): <0.05
Impurity 7 ([4]; 40° C./75% RH, 1 month): <0.05
anamorelin (HPLC purity) ([4]; 40° C./75% RH, 1 month): 100.0%
Impurity 1 ([4]; 40° C./75% RH, 3 months): <0.05
Impurity 2 ([4]; 40° C./75% RH, 3 months): <0.05
Impurity 3 ([4]; 40° C./75% RH, 3 months): <0.05
Impurity 4 ([4]; 40° C./75% RH, 3 months): <0.05
Impurity 5 ([4]; 40° C./75% RH, 3 months): <0.05
Impurity 6 ([4]; 40° C./75% RH, 3 months): <0.05
Impurity 7 ([4]; 40° C./75% RH, 3 months): <0.05
anamorelin (HPLC purity) ([4]; 40° C./75% RH, 3 months): 100.0%
Impurity 1 ([4]; 40° C./75% RH, 6 months): <0.05
Impurity 2 ([4]; 40° C./75% RH, 6 months): <0.05
Impurity 3 ([4]; 40° C./75% RH, 6 months): <0.05
Impurity 4 ([4]; 40° C./75% RH, 6 months): <0.05
Impurity 5 ([4]; 40° C./75% RH, 6 months): <0.05
Impurity 6 ([4]; 40° C./75% RH, 6 months): <0.05
Impurity 7 ([4]; 40° C./75% RH, 6 months): <0.05
anamorelin (HPLC purity) ([4]; 40° C./75% RH, 6 months): 100.0%
Impurity 1 ([4]; Initial): <0.05
Impurity 2 ([4]; Initial): <0.05
Impurity 3 ([4]; Initial): <0.05
Impurity 4 ([4]; Initial): <0.05
Impurity 5 ([4]; Initial): <0.05
Impurity 6 ([4]; Initial): <0.05
Impurity 7 ([4]; Initial): <0.05
anamorelin (HPLC purity) ([4]; Initial): 100.0%
Structure (SMILES): CN(C)N(C)C(=O)[C@@]1(Cc2ccccc2)CCCN(C(=O)[C@@H](Cc2c[nH]c3ccccc23)NC(=O)C(C)(C)N)C1 [anamorelin]

More lines, now with the values behind:

Structure (SMILES): CN(C)N(C)C(=O)[C@@]1(Cc2ccccc2)CCCN(C(=O)[C@@H](Cc2c[nH]c3ccccc23)NC(=O)C(C)(C)N)C1 [5.6%]
% Increase in Total Impurities From T0 ([1]; 25° C./60% RH, 1 Y): 10%
% Increase in Total Impurities From T0 ([1]; 25° C./60% RH, 2 Y): 48%
% Increase in Total Impurities From T0 ([1]; 25° C./60% RH, 3 Y): 29%

Structure (SMILES): CN(C)N(C)C(=O)[C@@]1(Cc2ccccc2)CCCN(C(=O)[C@@H](Cc2c[nH]c3ccccc23)NC(=O)C(C)(C)N)C1 [5.9%]
% Increase in Total Impurities From T0 ([1]; 25° C./60% RH, 1 Y): 0%
% Increase in Total Impurities From T0 ([1]; 25° C./60% RH, 2 Y): 20%
% Increase in Total Impurities From T0 ([1]; 25° C./60% RH, 3 Y): 20%
% Increase in Total Impurities From T0 ([1]; 40° C./75% RH, 1 M): 0%
% Increase in Total Impurities From T0 ([1]; 40° C./75% RH, 3 M): 21%
% Increase in Total Impurities From T0 ([1]; 40° C./75% RH, 6 M): 17%

Structure (SMILES): CN(C)N(C)C(=O)[C@@]1(Cc2ccccc2)CCCN(C(=O)[C@@H](Cc2c[nH]c3ccccc23)NC(=O)C(C)(C)N)C1 [6.2%]
% Increase in Total Impurities From T0 ([1]; 25° C./60% RH, 1 Y): 85%
% Increase in Total Impurities From T0 ([1]; 25° C./60% RH, 2 Y): 114%
% Increase in Total Impurities From T0 ([1]; 25° C./60% RH, 3 Y): 100%
% Increase in Total Impurities From T0 ([1]; 40° C./75% RH, 1 M): 107%
% Increase in Total Impurities From T0 ([1]; 40° C./75% RH, 3 M): 100%
% Increase in Total Impurities From T0 ([1]; 40° C./75% RH, 6 M): 171%

Structure (SMILES): CN(C)N(C)C(=O)[C@@]1(Cc2ccccc2)CCCN(C(=O)[C@@H](Cc2c[nH]c3ccccc23)NC(=O)C(C)(C)N)C1 [6.3%]
% Increase in Total Impurities From T0 ([1]; 25° C./60% RH, 1 Y): 200%
% Increase in Total Impurities From T0 ([1]; 25° C./60% RH, 2 Y): 340%
% Increase in Total Impurities From T0 ([1]; 25° C./60% RH, 3 Y): 360%
% Increase in Total Impurities From T0 ([1]; 40° C./75% RH, 1 M): 140%
% Increase in Total Impurities From T0 ([1]; 40° C./75% RH, 3 M): 400%
% Increase in Total Impurities From T0 ([1]; 40° C./75% RH, 6 M): 500%

Structure (SMILES): CN(C)N(C)C(=O)[C@@]1(Cc2ccccc2)CCCN(C(=O)[C@@H](Cc2c[nH]c3ccccc23)NC(=O)C(C)(C)N)C1 [Anamorelin Di-HCl, reference compound]
HPLC Area % ([2]; 1M): 98.2%
HPLC Area % ([2]; 3M): 97.1%
HPLC Area % ([2]; I.T.): 98.9%
long-term stability (in words) ([2]; relative to the monohydrochloride): easy to be changed
